Assay results taken from US20250122221A1 (NANJING ZAIMING PHARMACEUTICAL CO., LTD., priority 2022, published 2025).
pIC50: −log10 of the molar value. Like-named read-outs stand apart in the source and are kept apart here.

Assays:
[1] = system: DLD-1 BRCA2 (−/−) cells; assay: Inhibition of tumour cell proliferation, 7 days, CTG; type: cell-based; settings: Homo sapiens, read-out: DLD-1 BRCA2 (−/−) IC50
Experimental: (§1) Brief introduction to the experimental principle: The compounds were co-incubated with tumour cells for 7 days, and then a CTG kit from Promega Inc was used to quantify ATP in viable cells, thus reflecting the effect of the compounds on tumour cell proliferation.
(§2) Experimental method: DLD-1 parental cells or DLD-1 BRCA2 (−/−) cells were diluted with RPMI 1640 medium containing 10% FBS, and then added to a 96-well plate (90 μL/well), with the number of cells being 600 cells/well or 1200 cells/well, respectively, and cultured overnight in a 37° C., 5% CO2 incubator. The compounds to be tested were diluted to different concentrations in dimethyl sulfoxide (DMSO), and then added to a 96-well plate. The final concentration of the compounds in the reaction system started from 25 μM, and was subjected to 4-fold gradient dilution. The concentration range of the compounds was from 25 μM to 0.0004 μM, and the final concentration of DMSO was 0.25% v/v. After 7 days of incubation, 50 μL/well CTG was added, and the mixture was incubated at room temperature for 10 minutes. Subsequently, the luminescence (Lum) signal value was read with an Envision microplate reader, and the inhibition rate and half inhibitory concentration (IC50) were calculated.
(§3) The inhibition rate was calculated, and XLfit software was used to perform fitting to obtain IC50 of the compounds.
(§4) In the experiment, a blank well and a DMSO well were set up, respectively.
(§5) Inhibition rate=100*(Lummax−Lumcompound)/(Lummax−Lummin)%, • where Lummax refers to the luminescence signal value of the well containing cells and 0.25% v/v DMSO; Lumcompound refers to the luminescence signal value of the well containing the compound and cells; and Lummin refers to the luminescence signal value of the well containing the medium and 0.25% v/v DMSO.

[2] = system: DLD-1 parental cells; assay: as above; type: cell-based; settings: Homo sapiens, read-out: DLD-1 parental cell IC50
Experimental: as §1, §2, §3, §4, §5

[3] = biological target: N-terminal active peptide segment (MI-N899) of POLQ with ATPase activity (Homo sapiens (Human), UniProt O75417); assay: POLQ enzyme activity inhibition experiment (ATPase, NADH-coupled, OD 340 nm); type: biochemical; settings: 100 nM POLQ (N), 100 μM ATP, 300 nM dT50
[4] = 168 h, DLD-1 BRCA2 (−/−) cells, 7 days of incubation, CTG
[5] = 168 h, DLD-1 parental cells, 7 days of incubation, CTG

N-terminal active peptide segment (MI-N899) of POLQ with ATPase activity, sequence (O75417 1-899 limits assumed): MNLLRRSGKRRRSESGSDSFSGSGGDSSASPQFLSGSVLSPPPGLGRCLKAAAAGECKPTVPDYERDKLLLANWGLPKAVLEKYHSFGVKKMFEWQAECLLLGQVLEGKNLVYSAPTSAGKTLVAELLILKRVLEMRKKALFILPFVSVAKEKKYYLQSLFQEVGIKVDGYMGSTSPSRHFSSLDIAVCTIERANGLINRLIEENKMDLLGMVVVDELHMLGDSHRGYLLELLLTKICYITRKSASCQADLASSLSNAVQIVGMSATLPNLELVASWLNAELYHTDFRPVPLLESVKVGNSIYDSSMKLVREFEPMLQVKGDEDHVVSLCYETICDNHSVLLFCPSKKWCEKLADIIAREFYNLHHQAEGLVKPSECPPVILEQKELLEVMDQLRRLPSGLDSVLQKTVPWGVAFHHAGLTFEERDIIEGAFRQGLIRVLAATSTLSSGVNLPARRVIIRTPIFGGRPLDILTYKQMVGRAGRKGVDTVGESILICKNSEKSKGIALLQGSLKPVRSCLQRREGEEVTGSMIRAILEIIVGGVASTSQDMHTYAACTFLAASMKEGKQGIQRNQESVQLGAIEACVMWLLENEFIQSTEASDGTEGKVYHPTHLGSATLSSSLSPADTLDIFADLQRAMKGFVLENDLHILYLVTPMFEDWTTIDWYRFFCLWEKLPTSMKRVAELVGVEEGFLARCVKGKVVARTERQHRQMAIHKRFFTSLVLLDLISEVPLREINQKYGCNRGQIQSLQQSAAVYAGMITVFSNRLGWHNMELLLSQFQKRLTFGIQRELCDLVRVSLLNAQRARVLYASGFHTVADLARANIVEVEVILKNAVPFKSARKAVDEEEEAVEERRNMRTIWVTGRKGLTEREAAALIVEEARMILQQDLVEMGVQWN

SMILES	pIC50 [1, 4]	pIC50 [2, 5]	pIC50 [3]	pIC50 ([1]; DLD-1, 168 h)	pIC50 ([2]; DLD-1, 168 h)
COc1cnc(C(F)(F)F)cc1-c1cc(C)ncc1C(=O)Nc1nc2ncc(-c3ccc(C#N)cc3)nc2s1 [Compound 73, N-(6-(4-cyanophenyl)thiazolo[4,5-b]pyrazin-2-yl)-5′-methoxy-6-methyl-2′-(trifluoromethyl)-[4,4′-bipyridine]-3-carboxamide]	> 6.70	< 5.00	> 7.00		
Cc1cc(-c2cc(C)ncc2C(=O)Nc2nc3ncc(-c4ccc(C#N)cc4)nc3s2)c(OC(F)F)cn1 [Compound 74, N-(6-(4-cyanophenyl)thiazolo[4,5-b]pyrazin-2-yl)-5′-(difluoromethoxy)-2′,6-dimethyl-[4,4′-bipyridine]-3-carboxamide]	> 6.70	< 5.00	> 7.00		
COc1ccc(-c2cnc3nc(NC(=O)c4cnc(C)cc4-c4cc(C)ncc4OC)sc3n2)nc1 [Compound 75, 5′-methoxy-N-[6-(5-methoxypyridin-2-yl)thiazolo[4,5-b]pyrazin-2-yl]-2′,6-dimethyl-[4,4′-bipyridine]-3-carboxamide]			> 7.00	> 6.70	< 5.00
COc1ccc(Cl)cc1-c1cc(C)ncc1C(=O)Nc1nc2ncc(-c3ccc(C4CC4)cn3)nc2s1 [Compound 77, 4-(5-chloro-2-methoxyphenyl)-N-[6-(5-cyclopropylpyridin-2-yl)thiazolo[4,5-b]pyrazin-2-yl]-6-methylpyridine-3-carboxamide]	> 6.70	< 5.00	> 7.00		
COc1ccc(Cl)cc1-c1cc(C)ncc1C(=O)Nc1nc2ncc(-c3ccc(C(C)(C)O)cn3)nc2s1 [Compound 78, 4-(5-chloro-2-methoxyphenyl)-N-(6-(5-(2-hydroxyprop-2-yl)pyridin-2-yl)thiazolo[4,5-b]pyrazin-2-yl)-6-methylpyridine-3-carboxamide]	> 6.70	< 5.00	> 7.00		
COc1ccc(Cl)cc1-c1cc(C)ncc1C(=O)Nc1nc2ncc(-c3ccc(C4CC4)cc3)nc2s1 [Compound 79, 4-(5-chloro-2-methoxyphenyl)-N-(6-(4-cyclopropylphenyl)thiazolo[4,5-b]pyrazin-2-yl)-6-methylpyridine-3-carboxamide]	> 6.70	< 5.00	> 7.00		
COc1ccc(Cl)cc1-c1cc(C)ncc1C(=O)Nc1nc2ncc(-c3ccc(OC(F)F)cc3)nc2s1 [Compound 80, 4-(5-chloro-2-methoxyphenyl)-N-(6-(4-(difluoromethoxy)phenyl)thiazolo[4,5-b]pyrazin-2-yl)-6-methylpyridine-3-carboxamide]	> 6.70	< 5.00	> 7.00		
COc1cnc(C)cc1-c1cc(C)ncc1C(=O)Nc1nc2ncc(-c3ccc(OC(F)(F)F)cc3)nc2s1 [Compound 81, 5′-methoxy-2′,6-dimethyl-N-(6-(4-(trifluoromethoxy)phenyl)thiazolo[4,5-b]pyrazin-2-yl)-[4,4′-bipyridine]-3-carboxamide]	> 6.70	< 5.00	> 7.00		
COc1cnc(C)cc1-c1cc(C)ncc1C(=O)Nc1nc2ncc(-c3ccc(C4CC4)cc3)nc2s1 [Compound 82, N-(6-(4-cyclopropylphenyl)thiazolo[4,5-b]pyrazin-2-yl)-5′-methoxy-2′,6-dimethyl-[4,4′-bipyridine]-3-carboxamide]	> 6.70	< 5.00	> 7.00		
COc1cnc(C2CC2)cc1-c1cc(C)ncc1C(=O)Nc1nc2ncc(-c3ccc(C4CC4)cc3)nc2s1 [Compound 83, 2′-cyclopropyl-N-(6-(4-cyclopropylphenyl)thiazolo[4,5-b]pyrazin-2-yl)-5′-methoxy-6-methyl-[4,4′-bipyridine]-3-carboxamide]	> 6.70	< 5.00	> 7.00		
COc1ccc(C2CC2)cc1-c1cc(C)ncc1C(=O)Nc1nc2ncc(-c3ccc(C#N)cc3)nc2s1 [Compound 84, N-(6-(4-cyanophenyl)thiazolo[4,5-b]pyrazin-2-yl)-4-(5-cyclopropyl-2-methoxyphenyl)-6-methylpyridine-3-carboxamide]	> 6.70	< 5.00	> 7.00		
COc1ccc(C2CC2)cc1-c1cc(C)ncc1C(=O)Nc1nc2ncc(-c3ccc(OC(F)F)cc3)nc2s1 [Compound 85, 4-(5-cyclopropyl-2-methoxyphenyl)-N-(6-(4-(difluoromethoxy)phenyl)thiazolo[4,5-b]pyrazin-2-yl)-6-methylpyridine-3-carboxamide]	> 6.70	< 5.00	> 7.00		
COc1ccc(C(F)(F)F)cc1-c1cc(C)ncc1C(=O)Nc1nc2ncc(-c3ccc(C#N)cc3)nc2s1 [Compound 86, N-(6-(4-cyanophenyl)thiazolo[4,5-b]pyrazin-2-yl)-4-(2-methoxy-5-(trifluoromethyl)phenyl)-6-methylpyridine-3-carboxamide]	> 6.70	< 5.00	> 7.00		
Cc1cc(-c2cc(Cl)ccc2Cl)c(C(=O)Nc2nc3ncc(-c4ccc(C#N)cc4)nc3s2)cn1 [Compound 87, N-(6-(4-cyanophenyl)thiazolo[4,5-b]pyrazin-2-yl)-4-(2,5-dichlorophenyl)-6-methylpyridine-3-carboxamide]	> 6.70	< 5.00	> 7.00		
COc1cnc(C)cc1-c1cc(C)ccc1C(=O)Nc1nc2ncc(-c3ccc(C#N)cc3)nc2s1 [Compound 92, N-(6-(4-cyanophenyl)thiazolo[4,5-b]pyrazin-2-yl)-2-(5-methoxy-2-methylpyridine-4-yl)-4-methylbenzamide]	> 6.70	< 5.00	> 7.00		
COc1ccc(Cl)cc1-c1cc(C)ccc1C(=O)Nc1nc2ncc(-c3ccc(C#N)cc3)nc2s1 [Compound 93, 5′-chloro-N-(6-(4-cyanophenyl)thiazolo[4,5-b]pyrazin-2-yl)-2′-methoxy-5-methyl-[1,1′-biphenyl]-2-carboxamide]	> 6.70	< 5.00	> 7.00		
Cc1cc(-c2cc(Cl)ccc2OC2CC2)c(C(=O)Nc2nc3ncc(-c4ccc(C#N)cc4)nc3s2)cn1 [Compound 94, 4-(5-chloro-2-cyclopropoxyphenyl)-N-(6-(4-cyanophenyl)thiazolo[4,5-b]pyrazin-2-yl)-6-methylpyridine-3-carboxamide]			> 7.00	> 6.70	< 5.00
